Assay results as given in the NIST ThermoML archive (doi:10.1016/j.jct.2013.09.041).

Legend:
[1] = mn = molality of the nth substance listed, in mol/kg; conditions: 323.15 K, 101 kPa, Liquid, Vibrating tube method
[2] = osmotic coefficient (dimensionless); mn = molality of the nth substance listed, in mol/kg; conditions: 323.15 K, 101 kPa, Liquid, A Knauer K-7000 vapor pressure osmometer
[3] = 323.15 K, 101.33 kPa, Liquid; for speed of sound: Sing-around technique in a fixed-path interferometer; for mass density: Vibrating tube method

CCCCCCn1cc[n+](C)c1.O=S(=O)([O-])C(F)(F)F [1-hexyl-3-methylimidazolium trifluoromethanesulfonate] + CCCCO
Conditions	mass density [kg/m3]	osmotic coefficient
[1], m1 = 0.052	791.18	–
[1], m1 = 0.103	795.76	–
[1], m1 = 0.152	799.99	–
[1], m1 = 0.202	804.23	–
[1], m1 = 0.254	808.45	–
[1], m1 = 0.303	812.46	–
[1], m1 = 0.353	816.43	–
[1], m1 = 0.405	820.46	–
[1], m1 = 0.448	823.73	–
[1], m1 = 0.504	827.88	–
[1], m1 = 0.598	834.75	–
[1], m1 = 0.701	841.92	–
[1], m1 = 0.792	848.08	–
[1], m1 = 0.906	855.49	–
[1], m1 = 1.01	861.88	–
[2], m1 = 0.028	–	0.828
[2], m1 = 0.045	–	0.721
[2], m1 = 0.114	–	0.599
[2], m1 = 0.198	–	0.543
[2], m1 = 0.302	–	0.482
[2], m1 = 0.427	–	0.453
[2], m1 = 0.526	–	0.434
[2], m1 = 0.81	–	0.399
[2], m1 = 1.224	–	0.356
[2], m1 = 1.64	–	0.339
[2], m1 = 2.045	–	0.329
[2], m1 = 2.417	–	0.313
[2], m1 = 2.827	–	0.298
[2], m1 = 3.312	–	0.282

CCCCCCn1cc[n+](C)c1.O=S(=O)([O-])C(F)(F)F [1-hexyl-3-methylimidazolium trifluoromethanesulfonate] + CCCO
Conditions	mass density, [1] [kg/m3]	osmotic coefficient, [2]
m1 = 0.025	–	0.964
m1 = 0.051	783.95	0.866
m1 = 0.087	–	0.796
m1 = 0.102	788.64	–
m1 = 0.153	793.14	–
m1 = 0.214	–	0.685
m1 = 0.234	800.17	–
m1 = 0.296	805.3	–
m1 = 0.306	806.08	–
m1 = 0.308	–	0.645
m1 = 0.355	810.02	–
m1 = 0.401	813.72	–
m1 = 0.411	–	0.585
m1 = 0.448	817.38	–
m1 = 0.518	822.69	0.547
m1 = 0.62	830.19	–
m1 = 0.707	836.34	–
m1 = 0.804	843.03	–
m1 = 0.815	–	0.494
m1 = 0.905	849.7	–
m1 = 1.012	856.34	–
m1 = 1.223	–	0.462
m1 = 1.614	–	0.427
m1 = 2.029	–	0.408
m1 = 2.416	–	0.392
m1 = 2.82	–	0.373
m1 = 3.493	–	0.361

CCCCO [butan-1-ol]
[3]
Conditions	mass density [kg/m3]	speed of sound [m/s]
–	786.32	1157.3

CCC(C)O (stereo not drawn) [butan-2-ol]
[3]
Conditions	mass density [kg/m3]	speed of sound [m/s]
–	780.4	1120.2

CCCCCO [pentan-1-ol]
[3]
Conditions	mass density [kg/m3]	speed of sound [m/s]
–	792.14	1192.9

CCCO [propan-1-ol]
[3]
Conditions	mass density [kg/m3]	speed of sound [m/s]
–	779.09	1121.8

CC(C)O [propan-2-ol]
[3]
Conditions	mass density [kg/m3]	speed of sound [m/s]
–	758.63	1050.9
